From ChEMBL document CHEMBL3301361, “Experimental in vitro DMPK and physicochemical data on a set of publicly disclosed compounds”
≈ marks a conversion by molar mass, not a printed value.

Tests used:
[1] = in vitro; conditions: human, plasma
[2] = in vitro; conditions: human, hepatocytes
[3] = physchem; conditions: octan-1-ol/water
[4] = in vitro; conditions: human
[5] = in vitro; conditions: SD, HW or BN, rat, plasma
[6] = physchem; conditions: pH 7.4 buffer

Row | SMILES | hepatocyte CLint [2] | logD ([3]; pH 7.4, LogD7.4) | also measured
1 | CC(C)(C)S(=O)(=O)N[C@H]1CC[C@H](C(=O)Nc2ccc(C(F)(F)F)cn2)CC1 | 5.75 µL/min/1e6 cells |  | fraction unbound at 5 h ([1]; PPB): 0.0409
2 | N=c1c(S(=O)(=O)c2ccc(Cl)cc2)cc2c(=O)n3ccccc3nc2n1C1CCCC1 | 35.5 µL/min/1e6 cells |  | fraction unbound at 5 h ([1]; PPB): 0.5
3 | CCC[C@H](CO)Nc1nc(S[C@@H](C)c2cccc(C#N)c2)nc2[nH]c(=O)sc12 | 22.4 µL/min/1e6 cells | 3.7 | microsomal CLint ([4]; liver microsomes): 52.5 µL/min/mg; fraction unbound at 5 h ([1]; PPB): 0.0007; fraction unbound at 5 h [5]: 0.0008
4 | O=C(NCc1ccc(OC(F)(F)F)cc1)C1c2ccccc2C(=O)N1CC1CC(F)(F)C1 (stereo unspecified) | 10 µL/min/1e6 cells | 3.9 | 
5 | C=CCOc1cc(-c2cccc3c(=O)cc(N4CCOCC4)oc23)ccc1NC(=O)CN1CCOCC1 | 83.2 µL/min/1e6 cells | 3 | solubility thermodynamic [6]: 4.7 µM (≈ 2.38 µg/mL)
6 | CC(c1cc2ccccc2s1)N(O)C(N)=O (stereo unspecified) [ZILEUTON] | 7.76 µL/min/1e6 cells | 2.05 | solubility thermodynamic [6]: 436 µM (≈ 103 µg/mL)
7 | O=S(=O)(Nc1ccc(C(F)(F)F)cc1)c1ccc2sc(CO)nc2c1 | 15.5 µL/min/1e6 cells |  | fraction unbound at 5 h ([1]; PPB): 0.0027
8 | CC1CNC(Nc2c(Cl)cccc2Cl)=N1 (stereo unspecified) | < 3 µL/min/1e6 cells |  | fraction unbound at 5 h [5]: 0.64
9 | CNc1ncnc2c(CNc3cc(NC(=O)c4ccc5c(c4)OCCO5)ccc3C)cccc12 | 41.7 µL/min/1e6 cells | 4 | solubility thermodynamic [6]: 9.3 µM (≈ 4.24 µg/mL)
10 | CC#C[C@]1(O)CC[C@H]2[C@@H]3CCC4=CC(=O)CCC4=C3[C@@H](c3ccc(N(C)C)cc3)C[C@@]21C [MIFEPRISTONE] | 26.9 µL/min/1e6 cells |  | microsomal CLint ([4]; liver microsomes): 79 µL/min/mg; fraction unbound at 5 h ([1]; PPB): 0.0015; solubility thermodynamic [6]: 1.9 µM (≈ 0.816 µg/mL)
11 | O=c1[nH]c2c(O)ccc([C@@H](O)CNCCc3ccc(CNCCc4ccccn4)cc3)c2s1 | < 3 µL/min/1e6 cells | -0.25 | fraction unbound at 5 h [5]: 0.483
12 | N#Cc1ccc(C(c2ccc(C#N)cc2)n2cncn2)cc1 [LETROZOLE] | < 3 µL/min/1e6 cells | 1.7 | fraction unbound at 5 h ([1]; PPB): 0.483
13 | O=C(CN1CCOCC1)Nc1ccc(-c2cccc3c(=O)cc(N4CCOCC4)oc23)cc1O | 18.6 µL/min/1e6 cells | 2.4 | solubility thermodynamic [6]: 7.2 µM (≈ 3.35 µg/mL)
14 | O=C(CCCc1ccc2cccnc2n1)NCc1cc(-c2ccc(F)c(C(F)(F)F)c2)no1 | 19.9 µL/min/1e6 cells |  | fraction unbound at 5 h ([1]; PPB): 0.0009; fraction unbound at 5 h [5]: 0.0119
15 | O=S(=O)(Nc1ccc2sc(CO)nc2c1)c1ccc(Br)cc1 | 24.6 µL/min/1e6 cells |  | fraction unbound at 5 h [5]: 0.0018
16 | CC[C@H](CO)Nc1nc(SCc2cccc(F)c2F)nc2nc(N)sc12 | 5.16 µL/min/1e6 cells |  | microsomal CLint ([4]; liver microsomes): 62 µL/min/mg; fraction unbound at 5 h ([1]; PPB): 0.0149
17 | C[C@@H]1CN(C(=O)N[C@H](Cc2ccc(F)cc2)C(=O)N2CCC(C(=O)NC(C)(C)C)(C3CCCCC3)CC2)C[C@H](C)N1 | 10.7 µL/min/1e6 cells |  | fraction unbound at 5 h [5]: 0.0872
18 | CC(C)C[C@H](CO)Nc1nc(SCc2ccccc2)nc2nc(N)sc12 | 20.4 µL/min/1e6 cells | 4.2 | 
19 | CCOc1cc(-c2cccc3c(=O)cc(N4CCOCC4)oc23)ccc1NC(=O)CN1CCOCC1 | 51.3 µL/min/1e6 cells | 2.8 | solubility thermodynamic [6]: 1.4 µM (≈ 0.691 µg/mL)
20 | COc1ccc(/C=C2\NC(=O)NC2=O)cc1 | 39.8 µL/min/1e6 cells |  | 
21 | Clc1ccc(Cn2c(-c3nn[nH]n3)cc3ccccc32)cc1Cl | 12.9 µL/min/1e6 cells |  | 
22 | NS(=O)(=O)c1ccc(-n2nc(C(F)(F)F)cc2-c2ccc(C(F)(F)F)cc2)cc1 | 18.2 µL/min/1e6 cells |  | 
23 | C[C@]12CC[C@H](O)CC1=CC[C@@H]1[C@@H]2CC[C@]2(C)C(c3cccnc3)=CC[C@@H]12 [ABIRATERONE] | 55 µL/min/1e6 cells |  | 
24 | NC1(c2ccc(-c3c(-c4ccccc4)ccn4ncnc34)cc2)CCC1 | < 3 µL/min/1e6 cells |  | 

Row | SMILES | hepatocyte CLint [2] | logD ([3]; pH 7.4, LogD7.4) | also measured
25 | O=C(CN1CCOCC1)Nc1ccc(-c2cccc3c(=O)cc(N4CCOCC4)oc23)cc1OCCN1CCCC1 | 5.5 µL/min/1e6 cells |  | 
26 | COCCOc1nc(N)c2[nH]c(=O)n(Cc3cccc(CC(=O)OC)c3)c2n1 | 125 µL/min/1e6 cells | 1.86 | solubility thermodynamic [6]: 21.9 µM (≈ 8.48 µg/mL)
27 | CS(=O)(=O)C1(c2cc(N3CCOCC3)nc(-c3cccc4[nH]ncc34)n2)CC1 | < 3 µL/min/1e6 cells |  | 
28 | O=C1CN=C(c2ccccc2Cl)c2cc([N+](=O)[O-])ccc2N1 [CLONAZEPAM] | 3.72 µL/min/1e6 cells |  | logD ([3]; pH 7.4): 3.72; solubility thermodynamic [6]: 240 µM (≈ 75.7 µg/mL)
29 | NC(=O)c1ccn2c(-c3ccccc3)c(-c3ccc(C4(N)CCC4)cc3)nc2c1 | 3.72 µL/min/1e6 cells |  | solubility thermodynamic [6]: 112 µM (≈ 42.9 µg/mL)
30 | COCCOc1cc(-c2cccc3c(=O)cc(N4CCOCC4)oc23)ccc1NC(=O)CN1CCOCC1 | 43.6 µL/min/1e6 cells |  | 
31 | CC(C)(CO)Nc1nc(SCc2cccc(F)c2F)nc2nc(N)sc12 | 5.88 µL/min/1e6 cells | 3.37 | 
32 | CC(C)c1cc(C(=O)N2Cc3ccc(CN4CCN(C)CC4)cc3C2)c(O)cc1O [ONALESPIB] | 23.4 µL/min/1e6 cells | 2.5 | solubility thermodynamic [6]: 93.3 µM (≈ 38.2 µg/mL)
33 | Cc1c(Oc2ccc(Cl)cc2)c2c(NS(C)(=O)=O)cccc2n1CC(=O)O | < 3 µL/min/1e6 cells | -0.98 | microsomal CLint ([4]; microsomes): < 3 µL/min/mg; fraction unbound at 5 h ([1]; PPB): 0.0374
34 | C[C@]12CC[C@H](O)CC1=CCC1C2CC[C@]2(C)C(n3cnc4ccccc43)=CCC12 (stereo partly specified) | 34.7 µL/min/1e6 cells |  | 
35 | O=C(O)C1(c2ccc(-c3ccc(Cl)c(Cl)c3)c(F)c2)CC1 | 38.9 µL/min/1e6 cells |  | 
36 | Clc1ccc(COc2ccc(Br)cc2CN2CCOCC2)cc1 | 55 µL/min/1e6 cells |  | 
37 | Cn1cc(C2=C(c3cn(C4CCN(Cc5ccccn5)CC4)c4ccccc34)C(=O)NC2=O)c2ccccc21 [ENZASTAURIN] | 6 µL/min/1e6 cells |  | fraction unbound at 5 h [1]: 0.0017; solubility thermodynamic [6]: 0.8 µM (≈ 0.412 µg/mL)
38 | CNC(=O)c1ccccc1Nc1nc(Nc2ccc(N3CCOCC3)cc2OC)ncc1Cl | 16.2 µL/min/1e6 cells |  | solubility thermodynamic [6]: 0.4 µM (≈ 0.188 µg/mL)
39 | COc1ncccc1-c1cccc2c(N)c3c(nc12)CN(C1CCC1)C3=O | 4.88 µL/min/1e6 cells |  | 
40 | COc1cc(N2CC3CNCC(C2)O3)ccc1Nc1ncc(Cl)c(-c2cnc3ccccn23)n1 | 13.8 µL/min/1e6 cells |  | solubility thermodynamic [6]: 25.1 µM (≈ 12 µg/mL)
41 | CC(C)C[C@H](CO)Nc1nc(SCc2ccccc2)nc2[nH]c(=O)sc12 | 13.5 µL/min/1e6 cells | 4.2 | 
42 | CCCN1CCCC[C@H]1C(=O)Nc1c(C)cccc1C [ROPIVACAINE] | 15.5 µL/min/1e6 cells |  | fraction unbound at 5 h [5]: 0.511
43 | O=C(O)C1CSC(c2ccccc2Cl)N1C(=O)c1ccc(Cl)cc1 (stereo unspecified) | 15.5 µL/min/1e6 cells |  | 
44 | N#Cc1cccc(-c2cccc(C(=O)O)c2)c1 | 8.13 µL/min/1e6 cells | 0.3 | 
45 | O=C1NC(=O)C(=CC=Cc2ccccc2)S1 | 10.5 µL/min/1e6 cells |  | 
46 | C[C@H]1COCCN1c1nc(N2CCOC[C@@H]2C)c2ccc(-c3cccc(C(=O)NCCO)c3)nc2n1 | 10 µL/min/1e6 cells | 2.49 | 
47 | N=C(N)N1CCc2ccccc2C1 [DEBRISOQUIN] | 3.98 µL/min/1e6 cells | -1.01 | 
48 | Cc1c(N(C)C)c(=O)n(-c2ccccc2)n1C [AMINOPYRINE] | 3.47 µL/min/1e6 cells |  | 

Row | SMILES | hepatocyte CLint [2] | logD ([3]; pH 7.4, LogD7.4) | also measured
49 | O=C(O)c1ccc(-n2nc(C(F)(F)F)cc2-c2ccc(C(F)(F)F)cc2)cc1 | 9.33 µL/min/1e6 cells |  | 
50 | Cc1c(Cl)cccc1S(=O)(=O)N1CCC[C@H](C(=O)NC2CCCCC2)C1 | 18.6 µL/min/1e6 cells |  | 
51 | COc1cc(C2CCN(C(C)=O)CC2)ccc1Nc1ncc(Cl)c(-c2cnc3ccccn23)n1 | 24 µL/min/1e6 cells |  | solubility thermodynamic [6]: 2.2 µM (≈ 1.05 µg/mL)
52 | Nc1nc(-c2ccc(Cl)c(Cl)c2)c(-c2ccncc2)s1 | 19.1 µL/min/1e6 cells |  | fraction unbound at 5 h ([1]; PPB): 0.0074
53 | COc1ccccc1OCCNCC(O)COc1cccc2[nH]c3ccccc3c12 (stereo unspecified) [CARVEDILOL] | 26.3 µL/min/1e6 cells |  | microsomal CLint ([4]; microsomes): 41.7 µL/min/mg; fraction unbound at 5 h [5]: 0.0262
54 | CNC(=O)c1ccc(C)c(-n2c(C)cc(OCc3ccc(F)cc3F)c(Br)c2=O)c1 [PH-797804] | < 3 µL/min/1e6 cells | 2.8 | solubility thermodynamic [6]: 21.4 µM (≈ 10.2 µg/mL); fraction unbound at 5 h [5]: 0.0183
55 | COc1cc(N2CCN(C(=O)[C@@H](C)O)CC2)ccc1Nc1ncc(Cl)c(-c2cnc3ccccn23)n1 | 12.6 µL/min/1e6 cells |  | 
56 | NC1(c2ccc(-c3ncc4cccnc4c3-c3ccccc3)cc2)CCC1 | 19.5 µL/min/1e6 cells |  | 
57 | Nc1c(-c2ccccc2)nc(Cl)nc1-c1ccccc1 | 46.8 µL/min/1e6 cells |  | 
58 | CCN(C(=O)c1ccc(-c2ccc(Cl)cc2)o1)c1ccc(N2CCNCC2)cc1 | < 3 µL/min/1e6 cells | 3.3 | 
59 | CC(C)COc1cc(-c2cccc3c(=O)cc(N4CCOCC4)oc23)ccc1NC(=O)CN1CCOCC1 | > 150 µL/min/1e6 cells | 3.8 | solubility thermodynamic [6]: 3.5 µM (≈ 1.83 µg/mL)
60 | COc1ccccc1-c1csc(-n2ncc(C#N)c2N)n1 | 55 µL/min/1e6 cells |  | fraction unbound at 5 h ([1]; PPB): 0.591; fraction unbound at 5 h [5]: 0.529
61 | CCC1(C2=NCCN2)Cc2ccccc2O1 (stereo unspecified) [EFAROXAN] | < 3 µL/min/1e6 cells |  | fraction unbound at 5 h [5]: 0.76
62 | COc1cc(C(CO)CO)ccc1Nc1ncc(Cl)c(-c2cnc3ccccn23)n1 | 19.9 µL/min/1e6 cells | 3.1 | solubility thermodynamic [6]: 6.8 µM (≈ 2.9 µg/mL)
63 | C[C@]12CC[C@H]3[C@@H](CCC4=CC(=O)CC[C@@]43C)[C@@H]1CC[C@@H]2O [TESTOSTERONE] | > 150 µL/min/1e6 cells |  | 
64 | CCCS(=O)(=O)Nc1ccc(F)c(C(=O)c2c[nH]c3ncc(-c4ccc(Cl)cc4)cc23)c1F [VEMURAFENIB] | 6.61 µL/min/1e6 cells |  | 
65 | Cc1ccc(-n2c(C)cc(/C=C3\SC(=O)NC3=O)c2C)cc1 | 17.8 µL/min/1e6 cells |  | fraction unbound at 5 h ([1]; PPB): 0.0016
66 | CC(C)Oc1cc(-c2cccc3c(=O)cc(N4CCOCC4)oc23)ccc1NC(=O)CN1CCOCC1 | 87.1 µL/min/1e6 cells | 3 | solubility thermodynamic [6]: 4 µM (≈ 2.03 µg/mL)
67 | CCC1=C(C)CN(C(=O)NCCc2ccc(S(=O)(=O)NC(=O)N[C@H]3CC[C@H](C)CC3)cc2)C1=O [GLIMEPIRIDE] | 23.2 µL/min/1e6 cells | 1.73 | 
68 | Cc1ccc2c(c1)c(Sc1ccc(S(C)(=O)=O)cc1)c(C)n2CC(=O)O | < 3 µL/min/1e6 cells | -0.08 | microsomal CLint ([4]; liver microsomes): < 3 µL/min/mg; fraction unbound at 5 h ([1]; PPB): 0.0081
69 | C[C@H]1COCCN1c1nc(N2CCOC[C@@H]2C)c2ccc(-c3ccc4nc[nH]c(=O)c4c3)nc2n1 | > 150 µL/min/1e6 cells |  | 
70 | Nc1ncc(-c2ccc(S(=O)(=O)N3CCCC3)cc2)nc1C(=O)Nc1cccnc1 | < 3 µL/min/1e6 cells |  | 
71 | NC1(c2ccc(-c3ncc4cnccc4c3-c3ccccc3)cc2)CCC1 | > 150 µL/min/1e6 cells |  | 
